Assay results from the supplement of paper PMC10627819.

Experiments:
[1] = system: S. aureus Newman; assay: fitness (endpoint OD595 vs no drug) (fraction); higher = more growth; conditions: one replicate
How it was run: (§1)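 Fitness was defined as the optical density at the transition into stationary phase relative to the robust mean of no-drug control wells. Values were capped at 1. Cultures were started at OD595 0.01 in 384-well plates (30 µl, or 55 µl for S. pneumoniae) in TSB, LB Lennox or CY at 37 °C. OD595 was recorded every 30 min over 14 h, with the first reading subtracted as background.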

[2] = system: S. pneumoniae D39V; assay: as above
How it was run: as §1

[3] = system: B. subtilis 168; assay: Bliss interaction score (quartile over a dose matrix) (fitness difference); higher = more antagonism (negative = synergy)
How it was run: (§2)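 Growth in each well was taken as OD595 at entry into stationary phase. Dividing by the plate's robust no-drug mean and capping at 1 gave fitness, and single-drug fitness was inferred from the combination data. The Bliss score, observed minus product-expected fitness, is summarised by quartiles over technical, biological and donor/recipient replicates.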

[4] = system: S. aureus DSM 20231; assay: as above
How it was run: as §2

[5] = system: S. aureus Newman; assay: as above
How it was run: as §2

[6] = system: S. pneumoniae D39V; assay: as above
How it was run: as §2

[7] = first compound 0.06 µg/mL, partner 0.5 µg/mL
[8] = first compound 0.12 µg/mL, partner 0.5 µg/mL
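For Bliss interaction score (quartile over a dose matrix) in this document: first quartile when negative (synergy) and third quartile when positive (antagonism).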

Molecule `C/C(=C\C(=O)OCCCCCCCCC(=O)O)C[C@@H]1OC[C@H](C[C@@H]2O[C@H]2[C@@H](C)[C@H](C)O)[C@@H](O)[C@H]1O` [Pseudomonic acid] + CN[C@H](CC(C)C)C(=O)N[C@H]1C(=O)N[C@@H](CC(N)=O)C(=O)N[C@H]2C(=O)N[C@H]3C(=O)N[C@H](C(=O)N[C@H](C(=O)O)c4cc(O)cc(O)c4-c4cc3ccc4O)[C@H](O)c3ccc(c(Cl)c3)Oc3cc2cc(c3O[C@@H]2O[C@H](CO)[C@@H](O)[C@H](O)[C@H]2O[C@H]2C[C@](C)(N)[C@H](O)[C@H](C)O2)Oc2ccc(cc2Cl)[C@H]1O [Vancomycin] has a fitness ([1]; first compound 0.0313 µg/mL, partner 0.1875 µg/mL) of 0.0232, a fitness ([1]; first compound 0.0313 µg/mL, partner 0.375 µg/mL) of 0.0206 and a fitness ([1]; first compound 0.0313 µg/mL, partner 0.75 µg/mL) of 0.0349. The fitness ([1]; first compound 0.0625 µg/mL, partner 0.1875 µg/mL) was 0.0221, the fitness ([1]; first compound 0.0625 µg/mL, partner 0.375 µg/mL) was 0.0409 and the fitness ([1]; first compound 0.0625 µg/mL, partner 0.75 µg/mL) was 0.053. For the same molecule, the fitness ([1]; first compound 0.125 µg/mL, partner 0.1875 µg/mL) was 0.0473, the fitness ([1]; first compound 0.125 µg/mL, partner 0.375 µg/mL) was 0.0505 and the fitness ([1]; first compound 0.125 µg/mL, partner 0.75 µg/mL) was 0.0388. It also gave a fitness ([2]; first compound 0.03 µg/mL, partner 0.03125 µg/mL) of 0.983, a fitness ([2]; first compound 0.03 µg/mL, partner 0.0625 µg/mL) of 0.973 and a fitness ([2]; first compound 0.03 µg/mL, partner 0.125 µg/mL) of 0.9. It also gave a fitness ([2]; first compound 0.06 µg/mL, partner 0.03125 µg/mL) of 0.873, a fitness ([2]; first compound 0.06 µg/mL, partner 0.0625 µg/mL) of 0.865 and a fitness [2, 7] of 0.259. The fitness ([2]; first compound 0.12 µg/mL, partner 0.03125 µg/mL) was 0.641, the fitness ([2]; first compound 0.12 µg/mL, partner 0.0625 µg/mL) was 0.611 and the fitness [2, 8] was 0.21. It also gave a Bliss interaction score [3] of 0.0278, a Bliss interaction score [4] of -0.0086 and a Bliss interaction score [5] of -0.0276. It also gave a Bliss interaction score [6] of 0.137.

With `C/C(=C\C(=O)OCCCCCCCCC(=O)O)C[C@@H]1OC[C@H](C[C@@H]2O[C@H]2[C@@H](C)[C@H](C)O)[C@@H](O)[C@H]1O` [Pseudomonic acid] + CN(N=O)C(=O)N[C@@H](C=O)[C@@H](O)[C@H](O)[C@H](O)CO [Streptozotocin] the fitness ([1]; first compound 0.0313 µg/mL, partner 0.15 µg/mL) was 0.0359, the fitness ([1]; first compound 0.0313 µg/mL, partner 0.3 µg/mL) was 0.0204 and the fitness ([1]; first compound 0.0313 µg/mL, partner 0.6 µg/mL) was 0.0135. It also gave a fitness ([1]; first compound 0.0625 µg/mL, partner 0.15 µg/mL) of 0.0417, a fitness ([1]; first compound 0.0625 µg/mL, partner 0.3 µg/mL) of 0.0023 and a fitness ([1]; first compound 0.0625 µg/mL, partner 0.6 µg/mL) of 0.0039. It also gave a fitness ([1]; first compound 0.125 µg/mL, partner 0.15 µg/mL) of 0.0264, a fitness ([1]; first compound 0.125 µg/mL, partner 0.3 µg/mL) of 0.0089 and a fitness ([1]; first compound 0.125 µg/mL, partner 0.6 µg/mL) of 0.0091. For the same molecule, the fitness ([2]; first compound 0.03 µg/mL, partner 1.2 µg/mL) was 0.834, the fitness ([2]; first compound 0.03 µg/mL, partner 2.4 µg/mL) was 0.885 and the fitness ([2]; first compound 0.03 µg/mL, partner 4.8 µg/mL) was 0.874. For the same molecule, the fitness ([2]; first compound 0.06 µg/mL, partner 1.2 µg/mL) was 0.722, the fitness ([2]; first compound 0.06 µg/mL, partner 2.4 µg/mL) was 0.718 and the fitness ([2]; first compound 0.06 µg/mL, partner 4.8 µg/mL) was 0.752. For the same molecule, the fitness ([2]; first compound 0.12 µg/mL, partner 1.2 µg/mL) was 0.533, the fitness ([2]; first compound 0.12 µg/mL, partner 2.4 µg/mL) was 0.538 and the fitness ([2]; first compound 0.12 µg/mL, partner 4.8 µg/mL) was 0.56. For the same molecule, the Bliss interaction score [3] was 0.105, the Bliss interaction score [4] was -0.011 and the Bliss interaction score [5] was -0.0211. For the same molecule, the Bliss interaction score [6] was -0.0598.

For `C/C(=C\C(=O)OCCCCCCCCC(=O)O)C[C@@H]1OC[C@H](C[C@@H]2O[C@H]2[C@@H](C)[C@H](C)O)[C@@H](O)[C@H]1O` [Pseudomonic acid] + CC1=C\[C@@H](O)CC(=O)Cc2nc(co2)C(=O)N2CCC=C2C(=O)O[C@H](C(C)C)[C@H](C)/C=C/C(=O)NC\C=C\1 [Virginiamycin M1], the fitness ([1]; first compound 0.0313 µg/mL, partner 0.0625 µg/mL) was 0.0328, the fitness ([1]; first compound 0.0313 µg/mL, partner 0.125 µg/mL) was 0.0308 and the fitness ([1]; first compound 0.0313 µg/mL, partner 0.25 µg/mL) was 0.0405. The fitness ([1]; first compound 0.0625 µg/mL, partner 0.0625 µg/mL) was 0.0216, the fitness ([1]; first compound 0.0625 µg/mL, partner 0.125 µg/mL) was 0.0347 and the fitness ([1]; first compound 0.0625 µg/mL, partner 0.25 µg/mL) was 0.0352. For the same molecule, the fitness ([1]; first compound 0.125 µg/mL, partner 0.0625 µg/mL) was 0.0353, the fitness ([1]; first compound 0.125 µg/mL, partner 0.125 µg/mL) was 0.0594 and the fitness ([1]; first compound 0.125 µg/mL, partner 0.25 µg/mL) was 0.0492. The fitness ([2]; first compound 0.03 µg/mL, partner 0.15 µg/mL, one replicate) was at least 1, the fitness ([2]; first compound 0.03 µg/mL, partner 0.3 µg/mL, one replicate) was at least 1 and the fitness ([2]; first compound 0.03 µg/mL, partner 0.5 µg/mL) was 0.924. It also gave a fitness ([2]; first compound 0.03 µg/mL, partner 1 µg/mL) of 0.914, a fitness ([2]; first compound 0.03 µg/mL, partner 2 µg/mL) of 0.952 and a fitness ([2]; first compound 0.06 µg/mL, partner 0.15 µg/mL, one replicate) of at least 1. It also gave a fitness ([2]; first compound 0.06 µg/mL, partner 0.3 µg/mL, one replicate) of at least 1, a fitness [2, 7] of 0.856 and a fitness ([2]; first compound 0.06 µg/mL, partner 1 µg/mL) of 0.798. For the same molecule, the fitness ([2]; first compound 0.06 µg/mL, partner 2 µg/mL) was 0.844, the fitness ([2]; first compound 0.12 µg/mL, partner 0.15 µg/mL, one replicate) was 0.866 and the fitness ([2]; first compound 0.12 µg/mL, partner 0.3 µg/mL, one replicate) was 0.865. It also gave a fitness [2, 8] of 0.629, a fitness ([2]; first compound 0.12 µg/mL, partner 1 µg/mL) of 0.63 and a fitness ([2]; first compound 0.12 µg/mL, partner 2 µg/mL) of 0.647. It also gave a Bliss interaction score [3] of -0.0497, a Bliss interaction score [4] of -0.0077 and a Bliss interaction score [5] of -0.0218. The Bliss interaction score [6] was 0.106.
